Experimental data as given in patent US12037340B2, “Pentacyclic derivatives as Zika virus inhibitors” (Gilead Sciences, Inc., priority 2021, dated 2024).

Each molecule was assayed on ZIKV (assay: microbe, parasite or virus in culture). Conditions: 48 hrs.
Format: cell-based, Zika virus

| SMILES | EC50 |
| --- | --- |
| COC(=O)N[C@H](C(=O)N1[C@H](c2nc(Cl)c(-c3ccc4c(c3)COc3cc5c(ccc6nc([C@@H]7C[C@@H]8CCC[C@@H]8N7C(=O)[C@@H](NC(=O)OC)C(C)C)[nH]c65)cc3-4)[nH]2)C[C@@H]2CCC[C@@H]21)C(C)C [Compound 34, methyl ((S)-1-((2S,3aS,6aS)-2-(4-chloro-5-(2-((2S,3aS,6aS)-1-((methoxycarbonyl)-L-valyl)octahydrocyclopenta[b]pyrrol-2-yl)-1,11-dihydroisochromeno[4′,3′:6,7]naphtho[1,2-d]imidazol-9-yl)-1H-imidazol-2-yl)hexahydrocyclopenta[b]pyrrol-l(2H)-yl)-3-methyl-1-oxobutan-2-yl)carbamate] | 30.6 nM |
| CC[C@H](C)[C@H](NC(=O)OC)C(=O)N1[C@H](c2nc(Cl)c(-c3ccc4c(c3)COc3cc5c(ccc6nc([C@@H]7C[C@@H]8CCC[C@@H]8N7C(=O)[C@@H](NC(=O)OC)[C@@H](C)CC)[nH]c65)cc3-4)[nH]2)C[C@@H]2CCC[C@@H]21 [Compound 35, methyl ((2S,3S)-1-((2S,3aS,6aS)-2-(4-chloro-5-(2-((2S,3aS,6aS)-1-((methoxycarbonyl)-L-isoleucyl)octahydrocyclopenta[b]pyrrol-2-yl)-1,11-dihydroisochromeno[4′,3′:6,7]naphtho[1,2-d]imidazol-9-yl)-1H-imidazol-2-yl)hexahydrocyclopenta[b]pyrrol-l(2H)-yl)-3-methyl-1-oxopentan-2-yl)carbamate] | 20.9 nM |
| COC(=O)N[C@H](C(=O)N1[C@H](c2nc(Cl)c(-c3ccc4c(c3)COc3cc5c(ccc6nc([C@@H]7C[C@@H]8CCC[C@@H]8N7C(=O)[C@@H](NC(=O)OC)C7C[C@@H](C)O[C@H](C)C7)[nH]c65)cc3-4)[nH]2)C[C@@H]2CCC[C@@H]21)C1C[C@@H](C)O[C@H](C)C1 (stereo partly drawn) [Compound 36, methyl ((S)-2-((2S,3aS,6aS)-2-(4-chloro-5-(2-((2S,3aS,6aS)-1-((S)-2-((2R,6R)-2,6-dimethyltetrahydro-2H-pyran-4-yl)-2-((methoxycarbonyl)amino)acetyl)octahydrocyclopenta[b]pyrrol-2-yl)-1,11-dihydroisochromeno[4′,3′:6,7]naphtho[1,2-d]imidazol-9-yl)-1H-imidazol-2-yl)hexahydrocyclopenta[b]pyrrol-l(2H)-yl)-1-((2R,6R)-2,6-dimethyltetrahydro-2H-pyran-4-yl)-2-oxoethyl)carbamate] | 46.9 nM |
| COC(=O)N[C@H](C(=O)N1[C@H](c2nc(Cl)c(-c3ccc4c(c3)COc3cc5ccc6[nH]c([C@@H]7C[C@@H]8CCC[C@@H]8N7C(=O)[C@@H](NC(=O)OC)C(C)(C)C(F)(F)F)nc6c5cc3-4)[nH]2)C[C@@H]2CCC[C@@H]21)C(C)(C)C(F)(F)F [Compound 37, methyl ((S)-1-((2S,3aS,6aS)-2-(4-chloro-5-(2-((2S,3aS,6aS)-1-((S)-4,4,4-trifluoro-2-((methoxycarbonyl)amino)-3,3-dimethylbutanoyl)octahydrocyclopenta[b]pyrrol-2-yl)-1,11-dihydroisochromeno[4′,3′:6,7]naphtho[1,2-d]imidazol-9-yl)-1H-imidazol-2-yl)hexahydrocyclopenta[b]pyrrol-l(2H)-yl)-4,4,4-trilluoro-3,3-dimethyl-1-oxobutan-2-yl)carbamate] | 13.3 nM |
| COC(=O)N[C@H](C(=O)N1[C@@H](C)CC[C@H]1c1nc(C2CC2)c(-c2ccc3c(c2)COc2cc4c(ccc5nc([C@@H]6CC[C@H](C)N6C(=O)[C@@H](NC(=O)OC)C(C)(C)C(F)(F)F)[nH]c54)cc2-3)[nH]1)C(C)(C)C(F)(F)F [Compound 41, methyl ((S)-1-((2S,5S)-2-(4-cyclopropyl-5-(2-((2S,5S)-5-methyl-1-((S)-4,4,4-trifluoro-2-((methoxycarbonyl)amino)-3,3-dimethylbutanoyl)pyrrolidin-2-yl)-1,11-dihydroisochromeno[4′,3′:6,7]naphtho[1,2-d]imidazol-9-yl)-1H-imidazol-2-yl)-5-methylpyrrolidin-1-yl)-4,4,4-trilluoro-3,3-dimethyl-1-oxobutan-2-yl)carbamate] | 4.8 nM |

Same assay, conditions: Zika virus, Huh-7; 48 hrs

| SMILES | EC50 |
| --- | --- |
| COC(=O)N[C@H](C(=O)N1[C@@H](C)CC[C@H]1c1nc(Cl)c(-c2ccc3c(c2)COc2cc4c(ccc5nc([C@@H]6CC[C@H](C)N6C(=O)[C@@H](NC(=O)OC)C(C)(C)CF)[nH]c54)cc2-3)[nH]1)C(C)(C)CF [Compound 32, methyl ((S)-1-((2S,5S)-2-(4-chloro-5-(2-((2S,5S)-1-((S)-4-fluoro-2-((methoxycarbonyl)amino)-3,3-dimethylbutanoyl)-5-methylpyrrolidin-2-yl)-1,11-dihydroisochromeno[4′,3′:6,7]naphtho[1,2-d]imidazol-9-yl)-1H-imidazol-2-yl)-5-methylpyrrolidin-1-yl)-4-fluoro-3,3-dimethyl-1-oxobutan-2-yl)carbamate] | 5.9 nM |
| COC(=O)N[C@H](C(=O)N1[C@@H](C)CC[C@H]1c1nc(F)c(-c2ccc3c(c2)COc2cc4c(ccc5nc([C@@H]6CC[C@H](C)N6C(=O)[C@@H](NC(=O)OC)C(C)C)[nH]c54)cc2-3)[nH]1)C(C)C [Compound 33, methyl ((S)-1-((2S,5S)-2-(9-(4-fluoro-2-((2S,5S)-1-((methoxycarbonyl)-L-valyl)-5-methylpyrrolidin-2-yl)-1H-imidazol-5-yl)-1,11-dihydroisochromeno[4′,3′:6,7]naphtho[1,2-d]imidazol-2-yl)-5-methylpyrrolidin-1-yl)-3-methyl-1-oxobutan-2-yl)carbamate] | 77.3 nM |
| COC(=O)N[C@H](C(=O)N1[C@@H](C)CC[C@H]1c1nc(C2CC2)c(-c2ccc3c(c2)COc2cc4c(ccc5nc([C@@H]6CC[C@H](C)N6C(=O)[C@@H](NC(=O)OC)C(C)C)[nH]c54)cc2-3)[nH]1)C(C)C [Compound 38, methyl ((S)-1-((2S,5S)-2-(4-cyclopropyl-5-(2-((2S,5S)-1-((methoxycarbonyl)-L-valyl)-5-methylpyrrolidin-2-yl)-1,11-dihydroisochromeno[4′,3′:6,7]naphtho[1,2-d]imidazol-9-yl)-1H-imidazol-2-yl)-5-methylpyrrolidin-1-yl)-3-methyl-1-oxobutan-2-yl)carbamate] | 25.9 nM |
| CC[C@H](C)[C@H](NC(=O)OC)C(=O)N1[C@@H](C)CC[C@H]1c1nc(C2CC2)c(-c2ccc3c(c2)COc2cc4c(ccc5nc([C@@H]6CC[C@H](C)N6C(=O)[C@@H](NC(=O)OC)[C@@H](C)CC)[nH]c54)cc2-3)[nH]1 [Compound 39, methyl ((2S,3S)-1-((2S,5S)-2-(4-cyclopropyl-5-(2-((2S,5S)-1-((methoxycarbonyl)-L-isoleucyl)-5-methylpyrrolidin-2-yl)-1,11-dihydroisochromeno[4′,3′:6,7]naphtho[1,2-d]imidazol-9-yl)-1H-imidazol-2-yl)-5-methylpyrrolidin-1-yl)-3-methyl-1-oxopentan-2-yl)carbamate] | 17.2 nM |
| CC[C@@H](C)[C@H](NC(=O)OC)C(=O)N1[C@@H](C)CC[C@H]1c1nc(C2CC2)c(-c2ccc3c(c2)COc2cc4c(ccc5nc([C@@H]6CC[C@H](C)N6C(=O)[C@@H](NC(=O)OC)[C@H](C)CC)[nH]c54)cc2-3)[nH]1 [Compound 40, methyl ((2S,3R)-1-((2S,5S)-2-(4-cyclopropyl-5-(2-((2S,5S)-1-((methoxycarbonyl)-L-alloisoleucyl)-5-methylpyrrolidin-2-yl)-1,11-dihydroisochromeno[4′,3′:6,7]naphtho[1,2-d]imidazol-9-yl)-1H-imidazol-2-yl)-5-methylpyrrolidin-1-yl)-3-methyl-1-oxopentan-2-yl)carbamate] | 25.1 nM |
| COC(=O)N[C@H](C(=O)N1[C@@H](C)CC[C@H]1c1nc(C2CC2)c(-c2ccc3c(c2)COc2cc4c(ccc5nc([C@@H]6CC[C@H](C)N6C(=O)[C@@H](NC(=O)OC)C(C)(C)CF)[nH]c54)cc2-3)[nH]1)C(C)(C)CF [Compound 42, methyl ((S)-1-((2S,5S)-2-(4-cyclopropyl-5-(2-((2S,5S)-1-((S)-4-fluoro-2-((methoxycarbonyl)amino)-3,3-dimethylbutanoyl)-5-methylpyrrolidin-2-yl)-1,11-dihydroisochromeno[4′,3′:6,7]naphtho[1,2-d]imidazol-9-yl)-1H-imidazol-2-yl)-5-methylpyrrolidin-1-yl)-4-fluoro-3,3-dimethyl-1-oxobutan-2-yl)carbamate] | 21.4 nM |
| COC(=O)N[C@H](C(=O)N1[C@@H](C)CC[C@H]1c1nc(C(C)C)c(-c2ccc3c(c2)COc2cc4c(ccc5nc([C@@H]6CC[C@H](C)N6C(=O)[C@@H](NC(=O)OC)C(C)C)[nH]c54)cc2-3)[nH]1)C(C)C [Compound 43, methyl ((S)-1-((2S,5S)-2-(4-isopropyl-5-(2-((2S,5S)-1-((methoxycarbonyl)-L-valyl)-5-methylpyrrolidin-2-yl)-1,11-dihydroisochromeno[4′,3′:6,7]naphtho[1,2-d]imidazol-9-yl)-1H-imidazol-2-yl)-5-methylpyrrolidin-1-yl)-3-methyl-1-oxobutan-2-yl)carbamate] | 57.7 nM |
| CC[C@H](C)[C@H](NC(=O)OC)C(=O)N1[C@@H](C)CC[C@H]1c1nc(C(C)C)c(-c2ccc3c(c2)COc2cc4c(ccc5nc([C@@H]6CC[C@H](C)N6C(=O)[C@@H](NC(=O)OC)[C@@H](C)CC)[nH]c54)cc2-3)[nH]1 [Compound 44, methyl ((2S,3S)-1-((2S,5S)-2-(4-isopropyl-5-(2-((2S,5S)-1-((methoxycarbonyl)-L-isoleucyl)-5-methylpyrrolidin-2-yl)-1,11-dihydroisochromeno[4′,3′:6,7]naphtho[1,2-d]imidazol-9-yl)-1H-imidazol-2-yl)-5-methylpyrrolidin-1-yl)-3-methyl-1-oxopentan-2-yl)carbamate] | 11.5 nM |
| COC(=O)N[C@H](C(=O)N1[C@@H](C)CC[C@H]1c1nc(C(C)C)c(-c2ccc3c(c2)COc2cc4c(ccc5nc([C@@H]6CC[C@H](C)N6C(=O)[C@@H](NC(=O)OC)C(C)(C)C(F)(F)F)[nH]c54)cc2-3)[nH]1)C(C)(C)C(F)(F)F [Compound 45, methyl ((S)-4,4,4-trifluoro-1-((2S,5S)-2-(4-isopropyl-5-(2-((2S,5S)-5-methyl-1-((S)-4,4,4-trifluoro-2-((methoxycarbonyl)amino)-3,3-dimethylbutanoyl)pyrrolidin-2-yl)-1,11-dihydroisochromeno[4′,3′:6,7]naphtho[1,2-d]imidazol-9-yl)-1H-imidazol-2-yl)-5-methylpyrrolidin-1-yl)-3,3-dimethyl-1-oxobutan-2-yl)carbamate] | 4.9 nM |
